The assay deals with SARS-CoV-2.

Where a name gives a salt, the structure may show the parent alone. Read-outs that look alike come from different tables or passages of the source. Square brackets hold non-standard residues; d marks the D form. Peptide text beside a SMILES is read from it. NMeF = CN[C@@H](Cc1ccccc1)C(=O)O

Regarding `Cc1ccccc1C(=O)c1ccc(Nc2ccc(Br)cc2N)cc1Cl` [EO-1428], the “% Inh. (% Inhibition of SARS-CoV-2)” value (10 µM) was found to be 66.1%.
Same read-out and setting: next, `O=C(Nc1ccc(S(=O)(=O)C(F)(F)F)cc1)C1=CCN(c2ncccc2C(F)(F)F)CC1` [A-784168]: 60.3%; `COc1cccc(-c2cc(F)ccc2[C@H]2Cc3nc(N)nc(C)c3C(=O)N2)n1` [NVP-HSP990]: 100.4%.
With `CCCCCCCCCCCCCCCc1cccc(OCC(=O)NCCO)c1` [PDP-EA], the “% Inh. (% Inhibition of SARS-CoV-2)” value (10 µM) was found to be 65.3%.
As for `O=C1Nc2ccc(Cl)c3c2C1(CCCCN1CC=C(c2ccc(Cl)cc2)CC1)CCC3` (centres unmarked) [DR-4485], the “% Inh. (% Inhibition of SARS-CoV-2)” value (10 µM) was 82.8%.
Same read-out and setting: next, `CC(C)(C)Nc1nc(Nc2ccc(C(N)=O)cc2)cc(N)c1C#N` [TC-Mps1-12]: 65.3%; `CC(C)(C)c1cc(C(=O)/C=C/c2ccc(C(=O)O)cc2)cc(C(C)(C)C)c1` [CH55]: 87.5%; `CNC(=O)c1cccc(NC(=O)N2CCC(Oc3ccccc3Cl)CC2)c1` [A-939572]: 78.8%.
Same read-out and setting: then `O=C(Cc1ccc(-c2ccc(OCCN3CCOCC3)cc2)cn1)NCc1ccccc1` [KX2-391], with 79.9%.
The same measure, in the same setting: next, `CNC(=O)Nc1ccc(-c2nc(N3CC4CCC(C3)O4)c3cnn(C4CCC5(CC4)OCCO5)c3n2)cc1` [WYE-125132]: 99.7%; Tocofersolan: 95.2%; `NC(=O)Nc1sc(-c2ccc(F)cc2)cc1C(N)=O` [TPCA-1]: 103.5%.
Consider `Nc1nccc(Oc2ccc(NC(=O)c3c[nH]cc(-c4ccc(F)cc4)c3=O)cc2F)c1Cl` [BMS 794833], for which the “% Inh. (% Inhibition of SARS-CoV-2)” value (10 µM) came out at 98.3%.
Same read-out and setting: then `C=C1/C(=C\C=C2/CCC[C@]3(C)[C@@H]([C@H](C)/C=C/[C@H](C)C(C)(C)O)CC[C@@H]23)C[C@@H](O)C[C@@H]1O` [Ercalcitriol], with 86.9%.
On the same count and under the same terms, then `O=C(Nc1ccccc1)N1CCN(c2nc(-c3ccccc3)ns2)CC1` [JNJ 1661010], with 93.8%; and `O=S(=O)(c1cccc2c(Cl)cccc12)N1CCCNCC1` [ML-9], with 91.9%.
In the case of `Nc1ccc2ncnc(NCCc3ccc(Oc4ccccc4)cc3)c2c1` [QNZ (EVP4593)], under “10 µM”, the “% Inh. (% Inhibition of SARS-CoV-2)” value amounted to 95.8%.
Still for that read-out and setting: then `COc1cc2ncnc(Nc3ccc(Cl)cc3F)c2cc1OC` [ZM-306416], with 77.9%.
Take `CNC[C@H](O)[C@@H](O)[C@H](O)[C@H](O)CO.CNC[C@H](O)[C@@H](O)[C@H](O)[C@H](O)CO.C[C@@H](O[C@H]1OCCN(Cc2nn(P(=O)(O)O)c(=O)[nH]2)[C@H]1c1ccc(F)cc1)c1cc(C(F)(F)F)cc(C(F)(F)F)c1` [Fosaprepitant dimeglumine salt]: the “% Inh. (% Inhibition of SARS-CoV-2)” value (10 µM) was 78.3%.
For the compound `O=c1oc(-c2ccc(C(F)(F)F)cc2)nn1Cc1cc(Cl)ccc1O` [BMS-191011], the “% Inh. (% Inhibition of SARS-CoV-2)” value (10 µM) came out at 52.3%.
Take `O=C(NC1CCN(Cc2ccccc2)CC1)c1ccc(I)cc1` [4-IBP]: under “10 µM”, the “% Inh. (% Inhibition of SARS-CoV-2)” value amounted to 89.9%.
Still for that read-out and setting: then `Fc1ccc(Cl)cc1-c1nc(Nc2ccncc2)c2nccnc2n1` [SD-208], with 55.1%; and `OCCCNc1cc(-c2ccnc(Nc3cccc(Cl)c3)n2)ccn1` [CGP-60474], with 54.4%; and `CC(C)[C@H]1c2ccc(F)cc2CC[C@@]1(CCN(C)CCCc1nc2ccccc2[nH]1)OC(=O)C1CC1` [NNC-55-0396], with 58.1%.
In the case of niguldipine-(S)-(+), for the setting “10 µM”, the “% Inh. (% Inhibition of SARS-CoV-2)” value was 93.0%.
Still for that read-out and setting: next, `Cc1ccc(Nc2ncc3c(n2)N(C)C(=O)N(c2cc(NC(=O)c4cccc(C(F)(F)F)c4)ccc2C)C3)cn1` [GNF-7]: 107.6%.
In the case of `Cc1cc(N2CCOCC2)ccc1Nc1nc(NC2CCCCC2)c2[nH]cnc2n1` [MPI-0479605], the “% Inh. (% Inhibition of SARS-CoV-2)” value (10 µM) is listed as 61.2%.
The same measure, in the same setting: next, `O=S(=O)(NCCCCCCc1ccccc1)c1cccc2c(Cl)cccc12` [SC-9]: 83.4%.
As for `CSCC[C@H](NC(=O)[C@H](CC(C)C)NC(=O)[C@@H](Cc1c[nH]c2ccccc12)NC(=O)[C@H](Cc1ccccc1)N(C)C(=O)[C@@H](Cc1c[nH]c2ccccc12)NC(=O)[C@@H](N)CCCNC(=N)N)C(N)=O` [Antagonist-G] (H-R[dW][NMeF][dW]LM-NH2; N-terminus and C-terminus assumed), the “% Inh. (% Inhibition of SARS-CoV-2)” value (48 h, 10 μM) was found to be 58.0%.
`CCN1/C(=C/C(C)=O)Sc2ccc(OC)cc21` [TG003]: the “% Inh. (% Inhibition of SARS-CoV-2)” value (10 µM) came to 55.4%.
`CCCCCCN(CCCCCC)C(=O)Cc1c(-c2ccc(F)cc2)[nH]c2ccccc12` [FGIN-1-27]: the “% Inh. (% Inhibition of SARS-CoV-2)” value (10 µM) was 73.5%.
With `CNC(=O)c1ccccc1Nc1nc(Nc2ccc(N3CCOCC3)cc2OC)ncc1Cl` [NVP-TAE226], the “% Inh. (% Inhibition of SARS-CoV-2)” value (10 µM) stood at 73.2%.
On the same count and under the same terms, next, `Cc1ccc(NC(=O)c2cccc(C(C)(C)C#N)c2)cc1Nc1ccc2ncn(C)c(=O)c2c1` [AZ-628]: 99.6%; `CCC(=O)N1CCN(c2ccc(-n3c(=O)ccc4cnc5ccc(-c6cnc7ccccc7c6)cc5c43)cc2C(F)(F)F)CC1` [Torin 1]: 75.3%; `Cl.O.O=CN1CCC(C(=O)NCCN2CCC(=C3c4ccccc4C=Cc4ccccc43)CC2)CC1` [AT-1015]: 75.4%.
Turning to `Cc1cc(-c2ccc(CC(=O)Nc3ccc(-c4cccnc4)cc3)cc2)ccn1` [Wnt-C59 (C59)], the “% Inh. (% Inhibition of SARS-CoV-2)” value (10 µM) is reported as 82.3%.
The same measure, in the same setting: next, `O=C1OC2(c3cc(I)c(O)c(I)c3Oc3c2cc(I)c(O)c3I)c2c(Cl)c(Cl)c(Cl)c(Cl)c21` [rose-bengal-lactone]: 57.6%.
Still for that read-out and setting: next, `CCCCN1[C@@H]2CC[C@H]1CC(OC(c1ccc(F)cc1)c1ccc(F)cc1)C2` (some centres unmarked) [JHW-007]: 93.1%.
Turning to `CC(C)(Cc1c[nH]c2ccc(Cl)cc12)NCCOc1ccccc1OCC1CC1` [RS-17053], the “% Inh. (% Inhibition of SARS-CoV-2)” value (10 µM) worked out at 103.3%.
On the same count and under the same terms, then `Cl.c1ccc2c(-c3cnn4cc(-c5ccc(N6CCNCC6)cc5)cnc34)ccnc2c1` [LDN193189 (Hydrochloride)], with 74.3%.
As for `FC(F)(F)c1cc(CO[C@H]2CCCN[C@H]2c2ccccc2)cc(C(F)(F)F)c1` [L-733060], under “10 µM”, the “% Inh. (% Inhibition of SARS-CoV-2)” value was found to be 53.9%.
Still for that read-out and setting: next, `COc1c(C)cnc(Cn2cc(C#CCC(C)(C)O)c3c(Cl)nc(N)nc32)c1C` [EC-144]: 95.0%.
Same read-out and setting: then `CCc1c2c(nc3ccc(O)cc13)-c1cc3c(c(=O)n1C2)COC(=O)[C@]3(O)CC` [SN-38], with 79.2%; and `CC(C)(C)c1cc(C(=O)/C(C#N)=N/Nc2cccc(Cl)c2)no1` [ESI-09], with 78.0%.
Still for that read-out and setting: next, `O=C(NNc1nc2cc(F)ccc2n2cccc12)c1cnccn1` [SC144]: 108.7%.
`O=C(/C=C/c1ccc2ccccc2n1)c1ccncc1` [PFK-015] came in with an IC50 of 7.03 µM and a pIC50 of 5.15. Under “10 µM”, the “% Inh. (% Inhibition of SARS-CoV-2)” value is 101.3%.
`O=C(O)[C@]1(Cc2cccc(Nc3nccs3)n2)CC[C@@H](Oc2cccc(Cl)c2F)CC1` [MK-5108 (VX-689)]: the “% Inh. (% Inhibition of SARS-CoV-2)” value (10 µM) was 77.9%.
Take `Clc1ccc(N/N=C(\c2ccccc2)c2ccccn2)nc1` [JIB04 (NSC693627)]: the “% Inh. (% Inhibition of SARS-CoV-2)” value (10 µM) came out at 106.4%.
On the same count and under the same terms, then `O=C1NC(=O)c2cc(Nc3ccc(F)cc3)c(Nc3ccc(F)cc3)cc21` [CGP-53353], with 86.1%; and `COc1ccc(-c2csc(NC(=O)[C@H]3CCCCN3S(=O)(=O)c3ccc(C)cc3)n2)cc1` [ML-277], with 99.3%.
The same measure, in the same setting: then `CC(C)(C)c1ccc(-c2nc3c(N4CCN(Cc5ccc6nccnc6c5)CC4)cccc3[nH]2)cc1` [WAY-207024], with 77.1%; and `Cc1nc(C#Cc2ccnc(Cl)c2)c(C)n1-c1ccc(OC(F)(F)F)cc1` [CTEP (RO4956371)], with 59.7%; and Rupatadine Fumarate, with 72.1%.
The same measure, in the same setting: next, `CCC(C)C1O[C@]2(C=C[C@@H]1C)C[C@@H]1CC(C/C=C(\C)[C@@H](OC3C[C@H](OC)[C@@H](OC4C[C@H](OC)[C@@H](O)[C@H](C)O4)[C@H](C)O3)[C@@H](C)/C=C/C=C3\COC4[C@H](O)C(C)=CC(C(=O)O1)[C@]34O)O2` (some centres unmarked) [ABAMECTIN (avermectin B1a)]: 108.9%.
Turning to `CC1CCN(C(c2ccc(F)cc2)c2ccc(C(C)C(=O)O)cc2-c2ccc(C(F)(F)F)cc2)CC1` (centres unmarked) [TC-E-5006], the “% Inh. (% Inhibition of SARS-CoV-2)” value (10 µM) was found to be 94.1%.
On the same count and under the same terms, then `CC(C)(Cc1ccc2ccccc2c1)NC[C@@H](O)COc1cccc(Cl)c1C#N` [NPS-2143 (SB262470)], with 67.3%.
Consider `CC(C)(O)c1ccn2c(-c3ccc(F)c(-c4ccc(F)cc4C#N)c3)cnc2c1F` [TP-003], for which the “% Inh. (% Inhibition of SARS-CoV-2)” value (10 µM) worked out at 100.8%.
Still for that read-out and setting: next, `CCCCC1CCC(c2nc(-c3ccncc3)no2)CC1` (centres unmarked) [PSN-375963]: 83.9%.
Same read-out and setting: next, `N#Cc1ccc(-c2csc(NN=C3CCCC3)n2)cc1` [remodelin]: 99.4%.
On to Skepinone-L, for which the “% Inh. (% Inhibition of SARS-CoV-2)” value (10 µM) amounted to 86.1%.
Same read-out and setting: next, `CSc1ccccc1Nc1nc(N2CCNCC2)nc2c(NCC3CC3)ncnc12` [KHK-IN-1 (hydrochloride)]: 71.8%; `O=C1NC(=O)/C(=C/c2ccc3nccc(-c4ccncc4)c3c2)S1` [GSK1059615]: 92.4%; `Cc1ccc(-c2csc(NC(=O)c3ccccc3)n2)c(C)c1` [INH1]: 89.8%.
Still for that read-out and setting: then `COC(=O)C1=C(C)NC(C)=C(C(=O)OCCSc2ccccc2)C1C` (centres unmarked) [PCA-4248], with 55.3%; and `C=CC(=O)Nc1ccc2ncnc(Nc3cccc(Br)c3)c2c1` [PD168393], with 51.5%.
On the same count and under the same terms, then `CN1c2cc3c(cc2N=C(c2ccc(C(=O)O)cc2)c2ccccc21)C(C)(C)CCC3(C)C` [LE-135], with 105.5%.

The values are drawn from US20230126310A1 (priority 2020, published 2023).
